A short description of series [1]: Log P (Cyclohexane:buffer pH 7.4). The format is physicochemical.
Series [2] in a line: Log P (Octanol:buffer pH 7.4). The format is physicochemical.
A short description of series [3]: Antitumor activity expressed as inhibitory concentration against human breast cell line MDA 468(ER-ve). The series is classed as functional, cell-based. The conditions noted are these: MDA-MB-468.
The next series deals with MCF7. Briefly: Antitumor activity expressed as inhibitory concentration against human breast cell line MCF-7(ER+ve). The series is classed as functional, cell-based.
Series [4] in a line: Solubility of compound at pH 6. The format is physicochemical. Conditions: buffer.
A short description of series [5]: Delta Log P was determined. The format is physicochemical. Conditions: octanol/water.
The nature of series [6]: Solubility of compound at pH 5.4. Conditions: buffer. The format is physicochemical.
Series [7] is described as follows: Solubility of compound at pH 4.2. The series is classed as physicochemical. Conditions: buffer.
Series [8] in a line: Solubility of compound at pH 9. The series is classed as physicochemical. The conditions noted are these: buffer.
Series [9] in a line: Solubility of compound at pH 7.5. The format is physicochemical. The conditions noted are these: buffer.
Series [10] is described as follows: Solubility of compound at pH 7.1. The format is physicochemical. Conditions: buffer.

For the compound `Cc1cc(-c2nc3ccccc3s2)ccc1N`, the logD is 2.51 in [1] and 3.96 in series [2].
In the same order, the values of `Nc1ccc(-c2nc3ccccc3s2)cc1Br` are > 2.8 and > 3.3.
The matching figures for `Nc1ccc(-c2nc3ccccc3s2)cc1Cl`: > 3.2 and > 3.3.
For the compound `O=S(=O)([O-])Nc1ccc(-c2nc3ccccc3s2)cc1I.[Na+]`, the values for the logD in series [1] and in series [2] were 1.9 and 1.8, respectively. Further, the IC50 in series [3] is 1900 nM; in the series on MCF7, 1800 nM.
For `O=S(=O)([O-])Nc1ccc(-c2nc3ccccc3s2)cc1Cl.[Na+]`, the values for the logD in series [1] and in series [2] were < 2.19 and 0.02, respectively. In addition, the solubility came to 400 µg/mL in series [4]; 300 µg/mL in [6]; 500 µg/mL in [7]; 700 µg/mL in series [8]; 300 µg/mL in [9]; 300 µg/mL in series [10]. The “delta Log P” value in series [5] is listed as > 2.17. Besides, the 50% inhibitory concentration (IC50) in series [3] came to 9000 nM; in the series on MCF7, 420 nM.
Consider `Cc1cc(-c2nc3ccccc3s2)ccc1NS(=O)(=O)[O-].[Na+]`, for which the logD is < 3 in series [1] and 0.6 in series [2]. Besides, the “delta Log P” value in series [5] is > 2.4. The IC50 in series [3] came to 720 nM; with MCF7, 490 nM.
As for `Nc1ccc(-c2nc3ccccc3s2)cc1I`, the logD is > 2.7 in series [1] and > 3.3 in [2].
For `O=S(=O)(O)Nc1ccc(-c2nc3ccccc3s2)cc1`, the IC50 in [3] was determined as 7500 nM; in the series with MCF7, 3400 nM. In addition, the logD in series [2] was 3.4.
